# Tested on: SARS-CoV S protein
# Assay type: cell-based
smiles,measurement,value
CC(=O)N[C@@H](CC(C)C)C(=O)N[C@@H](CC(C)C)C(=O)N[C@H](C=O)CCCNC(=N)N [leupeptin],effect on cell-cell fusion,reduced
